15 compounds from patent US10925876B2, “Methods for using triazolo-pyrazinyl soluble guanylate cyclase activators in fibrotic disorders” (Merck Sharp & Dohme Corp., priority 2016, dated 2021) can be followed below.

Experiment [1] has as its system Spontaneously hypertensive rats (SHR). The experiment in a line: Acute Efficacy in Spontaneously Hypertensive Rats (SHR), telemetry blood pressure. It counts as in vivo, rat. The settings on record: single oral gavage. The text has this:
Spontaneously hypertensive rats (SHR, male, Charles River) were implanted with DSI TA11PA-C40 telemetry device (Data Sciences, Inc., St. Paul, Minn.) under isoflurane or ketamine/metomidine anesthesia. The telemetry unit catheter was inserted into the descending aorta via the femoral artery and the telemetry device was implanted subcutaneously in the left flank area. Animals were allowed to recover from surgery for 14 days before the start of any studies. Blood pressure, heart rate, and activity signals from conscious, freely moving rats were recorded continuously for 30 seconds every 10 minutes. On the day prior to administration of compound, a single oral dose of vehicle (10% transcutol/20% Cremophor/70% water) was administered to all animals to establish baseline control data. The blood pressure lowering efficacy of compound (PO) or vehicle was evaluated following a single oral gavage. Data were collected as hourly averages, and changes in blood pressure were calculated by subtracting control baseline data on an hourly basis. Animals were maintained on normal diet with a 12 hour light-dark cycle.
Maximum peak decreases of systolic blood pressure (SBP) in SHR at a particular P.O. dose (mpk milligrams per kilogram) for the following representative compounds are provided. Category A=SBP in SHRs <20 mmHg; Category B=SBP in SHRs 20-40 mmHg; Category C=SBP in SHRs >40 mmHg.

The next experiment concerns the target T1, sGC α1/β1 heterodimer (Homo sapiens, UniProt Q02108+Q02153).
T1 construct: expressed in transfected cells
T1 sequence (Q02108 1-690): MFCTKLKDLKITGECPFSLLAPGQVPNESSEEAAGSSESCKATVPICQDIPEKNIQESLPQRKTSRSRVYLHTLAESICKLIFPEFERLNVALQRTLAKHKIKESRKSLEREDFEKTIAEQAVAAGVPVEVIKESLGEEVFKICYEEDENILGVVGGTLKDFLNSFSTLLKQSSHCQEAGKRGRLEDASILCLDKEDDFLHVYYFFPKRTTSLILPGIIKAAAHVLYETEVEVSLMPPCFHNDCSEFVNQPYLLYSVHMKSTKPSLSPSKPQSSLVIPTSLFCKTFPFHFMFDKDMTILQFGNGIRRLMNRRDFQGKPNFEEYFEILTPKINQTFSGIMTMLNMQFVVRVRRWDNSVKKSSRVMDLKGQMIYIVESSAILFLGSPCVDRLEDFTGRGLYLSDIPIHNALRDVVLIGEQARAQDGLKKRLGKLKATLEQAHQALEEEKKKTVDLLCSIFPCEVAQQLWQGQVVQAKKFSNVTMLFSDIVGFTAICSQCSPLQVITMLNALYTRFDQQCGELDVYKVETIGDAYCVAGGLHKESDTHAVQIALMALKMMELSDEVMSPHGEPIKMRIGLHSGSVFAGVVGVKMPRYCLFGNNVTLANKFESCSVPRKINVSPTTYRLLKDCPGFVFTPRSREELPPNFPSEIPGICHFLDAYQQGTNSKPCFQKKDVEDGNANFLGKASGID
T1 sequence (Q02153 1-619): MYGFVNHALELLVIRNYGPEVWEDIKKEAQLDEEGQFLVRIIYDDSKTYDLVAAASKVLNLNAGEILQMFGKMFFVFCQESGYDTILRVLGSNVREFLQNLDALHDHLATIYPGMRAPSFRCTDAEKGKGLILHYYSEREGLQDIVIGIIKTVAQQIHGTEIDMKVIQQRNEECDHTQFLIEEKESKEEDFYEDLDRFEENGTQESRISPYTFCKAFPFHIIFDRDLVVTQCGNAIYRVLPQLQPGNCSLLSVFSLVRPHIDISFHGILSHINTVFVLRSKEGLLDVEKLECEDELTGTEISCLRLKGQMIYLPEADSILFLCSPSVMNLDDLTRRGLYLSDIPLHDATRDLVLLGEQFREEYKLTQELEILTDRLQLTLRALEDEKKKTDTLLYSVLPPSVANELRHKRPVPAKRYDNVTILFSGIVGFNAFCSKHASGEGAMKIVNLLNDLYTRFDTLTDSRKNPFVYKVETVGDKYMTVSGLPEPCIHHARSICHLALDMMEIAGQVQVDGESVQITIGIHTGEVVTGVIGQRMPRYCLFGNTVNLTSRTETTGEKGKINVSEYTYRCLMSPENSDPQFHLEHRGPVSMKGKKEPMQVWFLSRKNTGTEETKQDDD
Description: Cell-Based sGC Functional Assay (CASA Assay), cGMP generation in CHO-K1/sGC cells.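 Note: reference Compound A is a published heme-dependent sGC activator.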 The settings on record: maximum cGMP production of Compound A set to 100% activation, read-out: % Act. (percent activation relative to Compound A). Summed up: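 Intracellular cGMP quantified by HTRF competition after 1 h, 37 °C compound exposure, with or without 1 μM DETA-NO, in stable CHO-K1/sGC α1/β1 cells (4×10^5/mL; buffer with 0.5 mM IBMX, 5 mM MgCl2, 10 mM HEPES, 0.05% BSA; 2.5% DMSO). Activation normalized to reference Compound A maximum; 4P fit.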

SMILES strings stand for the structures.

For the compound `Cc1ccc(C2(C3CC3)C(=O)Nc3nc(-c4cn5ncnc5c(CCC(F)(F)C(F)(F)F)n4)nc(N)c32)nc1` (racemic) [Example 17B, 4-amino-5-cyclopropyl-5-(5-methylpyridin-2-yl)-2-(8-(3,3,4,4,4-pentafluorobutyl)-[1,2,4]triazolo[1,5-a]pyrazin-6-yl)-5H-pyrrolo[2,3-d]pyrimidin-6(7H)-one], in experiment [1] (P.O. 0.3 mpk), the “Maximum peak decrease of systolic blood pressure (SBP) in SHR, Cat.” value (shortened to “Maximum peak decrease”) was “A (Category A=SBP in SHRs <20 mmHg)”. Also, at sGC α1/β1 heterodimer, the Emax worked out at 119%.

Regarding `Nc1nc(-c2cn3ncnc3c(CCCC(F)(F)F)n2)nc2c1C(c1ccc(C(F)F)cn1)(C1CC1)C(=O)N2` (racemic) [Example 44B, 4-amino-5-cyclopropyl-5-(5-(difluoromethyl)pyridin-2-yl)-2-(8-(4,4,4-trifluorobutyl)-[1,2,4]triazolo[1,5-a]pyrazin-6-yl)-5H-pyrrolo[2,3-d]pyrimidin-6(7H)-one], the “Maximum peak decrease” value in experiment [1] (P.O. 1 mpk) is “B (Category B=SBP in SHRs 20-40 mmHg)”. In addition, the Emax at sGC α1/β1 heterodimer amounted to 120%.

`Nc1nc(-c2cn3ncnc3c(CCCC(F)(F)F)n2)nc2c1C(c1ccc(C(F)(F)F)cn1)(C1CC1)C(=O)N2` (single isomer, unassigned) [Example 2A, 4-Amino-5-cyclopropyl-2-(8-(4,4,4-trifluorobutyl)-[1,2,4]triazolo[1,5-a]pyrazin-6-yl)-5-(5-(trifluoromethyl)pyridin-2-yl)-5H-pyrrolo[2,3-d]pyrimidin-6(7H)-one]: the “Maximum peak decrease” value in experiment [1] (P.O. 0.3 mpk) is “A (Category A=SBP in SHRs <20 mmHg)”. For the same compound, the Emax on sGC α1/β1 heterodimer came out at 111%.

As to `C[C@@]1(c2ccc(F)cc2)C(=O)Nc2nc(-c3cn4ncnc4c(CCC(F)(F)C(F)(F)F)n3)nc(N)c21` [Example 1A, (S)-4-Amino-5-(4-fluorophenyl)-5-methyl-2-(8-(3,3,4,4,4-pentafluorobutyl)-[1,2,4]triazolo[1,5-a]pyrazin-6-yl)-5H-pyrrolo[2,3-d]pyrimidin-6(7H)-one], the “Maximum peak decrease” value in experiment [1] (P.O. 0.3 mpk) was “C (Category C=SBP in SHRs >40 mmHg)”. The Emax at sGC α1/β1 heterodimer is 196%.

`CC1(c2ccc(Cl)cn2)C(=O)Nc2nc(-c3cn4ncnc4c(CCC(F)(F)C(F)(F)F)n3)nc(N)c21` (stereo not drawn) [Example 3A, 4-amino-5-(5-chloropyridin-2-yl)-5-methyl-2-(8-(3,3,4,4,4-pentafluorobutyl)-[1,2,4]triazolo[1,5-a]pyrazin-6-yl)-5H-pyrrolo[2,3-d]pyrimidin-6(7H)-one]: the “Maximum peak decrease” value in experiment [1] (P.O. 0.3 mpk) is recorded as “B (Category B=SBP in SHRs 20-40 mmHg)”. The Emax on sGC α1/β1 heterodimer came out at 161%.

With `CC1(c2ccc(F)cn2)C(=O)Nc2nc(-c3cn4ncnc4c(CCC(F)(F)C(F)(F)F)n3)nc(N)c21` (stereo not drawn) [Example 4B, 4-amino-5-(5-fluoropyridin-2-yl)-5-methyl-2-(8-(3,3,4,4,4-pentafluorobutyl)-[1,2,4]triazolo[1,5-a]pyrazin-6-yl)-5H-pyrrolo[2,3-d]pyrimidin-6(7H)-one], the “Maximum peak decrease” value in experiment [1] (P.O. 0.3 mpk) was “C (Category C=SBP in SHRs >40 mmHg)”. The Emax at sGC α1/β1 heterodimer amounted to 157%.

`Nc1nc(-c2cn3ncnc3c(CCC(F)(F)C(F)(F)F)n2)nc2c1C(c1ccc(Cl)cn1)(C1CC1)C(=O)N2` (stereo not drawn) [Example 7A, 4-amino-5-(5-chloropyridin-2-yl)-5-cyclopropyl-2-(8-(3,3,4,4,4-pentafluorobutyl)-[1,2,4]triazolo[1,5-a]pyrazin-6-yl)-5H-pyrrolo[2,3-d]pyrimidin-6(7H)-one]: in experiment [1] (P.O. 0.3 mpk), the “Maximum peak decrease” value is “B (Category B=SBP in SHRs 20-40 mmHg)”. Besides, the Emax at sGC α1/β1 heterodimer came out at 185%.

With `Nc1nc(-c2cn3ncnc3c(CCC(F)(F)C(F)(F)F)n2)nc2c1C(c1cncc(F)c1)(C1CC1)C(=O)N2` (stereo not drawn) [Example 8B, 4-amino-5-cyclopropyl-5-(5-fluoropyridin-3-yl)-2-(8-(3,3,4,4,4-pentafluorobutyl)-[1,2,4]triazolo[1,5-a]pyrazin-6-yl)-5H-pyrrolo[2,3-d]pyrimidin-6(7H)-one], the “Maximum peak decrease” value in experiment [1] (P.O. 3 mpk) is reported as “B (Category B=SBP in SHRs 20-40 mmHg)”. The Emax on sGC α1/β1 heterodimer was found to be 177%.

As for `CC1(c2cncc(F)c2)C(=O)Nc2nc(-c3cn4ncnc4c(CCC(F)(F)C(F)(F)F)n3)nc(N)c21` (stereo not drawn) [Example 9A, 4-amino-5-(5-fluoropyridin-3-yl)-5-methyl-2-(8-(3,3,4,4,4-pentafluorobutyl)-[1,2,4]triazolo[1,5-a]pyrazin-6-yl)-5H-pyrrolo[2,3-d]pyrimidin-6(7H)-one], the “Maximum peak decrease” value in experiment [1] (P.O. 1 mpk) is recorded as “B (Category B=SBP in SHRs 20-40 mmHg)”. In addition, the Emax on sGC α1/β1 heterodimer was found to be 119%.

With `CCCCc1nc(-c2nc(O)c3c(n2)NC(=O)C3(C)c2cccc(F)c2)cn2ncnc12` (stereo not drawn) [Example 171A, 2-(8-Butyl-[1,2,4]triazolo[1,5-a]pyrazin-6-yl)-5-(3-fluorophenyl)-4-hydroxy-5-methyl-5,7-dihydro-6H-pyrrolo[2,3-d]pyrimidin-6-one], the Emax on sGC α1/β1 heterodimer was determined as 90%.

Turning to `C[C@@]1(c2ccc(F)cc2)C(=O)Nc2nc(-c3cn4ncnc4c(CCC(F)(F)C(F)(F)F)n3)ncc21` [Example 172A, (S)-5-(4-fluorophenyl)-5-methyl-2-(8-(3,3,4,4,4-pentafluorobutyl)-[1,2,4]triazolo[1,5-a]pyrazin-6-yl)-5,7-dihydro-6H-pyrrolo[2,3-d]pyrimidin-6-one], the Emax on sGC α1/β1 heterodimer is 122%.

For `C[C@@]1(c2ccc(F)cc2)C(=O)Nc2nc(-c3cn4ncnc4c(CCC(F)(F)F)n3)ncc21` [Example 174A, (S)-5-(4-fluorophenyl)-5-methyl-2-(8-(3,3,3-trifluoropropyl)-[1,2,4]triazolo[1,5-a]pyrazin-6-yl)-5,7-dihydro-6H-pyrrolo[2,3-d]pyrimidin-6-one], the Emax on sGC α1/β1 heterodimer was 133%.

For `CC1(c2ccc(Cl)cn2)C(=O)Nc2nc(-c3cn4ncnc4c(CCC(F)(F)C(F)(F)F)n3)ncc21` (stereo not drawn) [Example 175A, 5-(5-chloropyridin-2-yl)-5-methyl-2-(8-(3,3,4,4,4-pentafluorobutyl)-[1,2,4]triazolo[1,5-a]pyrazin-6-yl)-5H-pyrrolo[2,3-d]pyrimidin-6(7H)-one], the Emax on sGC α1/β1 heterodimer was determined as 115%.

Regarding `CC1(c2ccc(F)cn2)C(=O)Nc2nc(-c3cn4ncnc4c(CCCC(F)(F)F)n3)ncc21` (stereo not drawn) [Example 176B, 5-(5-fluoropyridin-2-yl)-5-methyl-2-(8-(4,4,4-trifluorobutyl)-[1,2,4]triazolo[1,5-a]pyrazin-6-yl)-5H-pyrrolo[2,3-d]pyrimidin-6(7H)-one], the Emax on sGC α1/β1 heterodimer amounted to 166%.

Consider `CC1(c2ccc(C(F)F)cn2)C(=O)Nc2nc(-c3cn4ncnc4c(CCCC(F)(F)F)n3)nc(O)c21` (stereo not drawn) [Example 181B, 4-hydroxy-5-(5-(difluoromethyl)pyridin-2-yl)-5-methyl-2-(8-(4,4,4-trifluorobutyl)-[1,2,4]triazolo[1,5-a]pyrazin-6-yl)-5H-pyrrolo[2,3-d]pyrimidin-6(7H)-one], for which the Emax on sGC α1/β1 heterodimer was 55%.
